Source: ChEMBL document CHEMBL4837241, “Identification of Betulinic Acid Derivatives as Potent TGR5 Agonists with Antidiabetic Effects via Humanized TGR5H88Y Mutant Mice” (J Med Chem, 2021)
pEC50: −log10 of the molar value. Values after ≈ are worked out from the molar mass of the structure shown. Active and inactive are the calls of the source. No cut-off for these calls is given here.

Columns and labels:
[1] = Aqueous solubility of compound; format: physicochemical; conditions: buffer
[2] = biological target: T1, G-protein coupled bile acid receptor 1 (Homo sapiens, UniProt Q8TDU6); test: Agonist activity at N-terminal HA-tagged human TGR5 expressed in HEK293 cells assessed as […] in intracellular cAMP levels incubated for 30 mins by Lance Ultra cAMP assay; format: functional, cell-based
T1 sequence (Q8TDU6 whole entry): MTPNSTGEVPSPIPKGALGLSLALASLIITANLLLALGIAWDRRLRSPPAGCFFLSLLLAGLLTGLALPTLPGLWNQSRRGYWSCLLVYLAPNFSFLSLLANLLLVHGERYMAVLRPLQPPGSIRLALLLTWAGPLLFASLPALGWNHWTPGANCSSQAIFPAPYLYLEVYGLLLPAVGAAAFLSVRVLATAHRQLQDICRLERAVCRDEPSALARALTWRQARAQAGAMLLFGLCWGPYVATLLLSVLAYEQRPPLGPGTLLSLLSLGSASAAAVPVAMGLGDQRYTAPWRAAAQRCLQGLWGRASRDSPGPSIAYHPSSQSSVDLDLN

HEK293 [3] = test: Agonist activity at N-terminal HA-tagged dog TGR5 expressed in HEK293 cells assessed as […] in intracellular cAMP levels incubated for 30 mins by Lance Ultra cAMP assay relative to control; format: cell-based; conditions: Canis lupus familiaris, filed as agonist
[4] = biological target: T2, G-protein coupled bile acid receptor 1 (Mus musculus) (UniProt Q80SS6); test: Agonist activity at N-terminal HA-tagged mouse TGR5 expressed in HEK293 cells assessed as […] in intracellular cAMP levels incubated for 30 mins by Lance Ultra cAMP assay relative to control; format: functional, cell-based; conditions: for Activity: filed as agonist
T2 sequence (whole entry): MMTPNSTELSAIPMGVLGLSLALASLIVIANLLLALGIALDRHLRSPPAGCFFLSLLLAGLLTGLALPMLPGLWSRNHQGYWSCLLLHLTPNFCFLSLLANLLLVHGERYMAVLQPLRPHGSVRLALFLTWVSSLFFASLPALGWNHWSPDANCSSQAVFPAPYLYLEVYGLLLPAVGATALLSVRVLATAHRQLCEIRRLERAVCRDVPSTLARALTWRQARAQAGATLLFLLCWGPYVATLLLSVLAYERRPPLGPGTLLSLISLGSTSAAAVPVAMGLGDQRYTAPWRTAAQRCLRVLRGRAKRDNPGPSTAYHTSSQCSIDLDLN

HEK293 [5] = test: Ratio of agonist activity at N-terminal HA-tagged mouse TGR5 expressed in HEK293 cells to agonist activity at N-terminal HA-tagged mouse TGR5 H88Y mutant expressed in HEK293 cells; format: cell-based
[6] = biological target: T3, Bile acid receptor (Homo sapiens) (UniProt Q96RI1); test: Agonist activity at human FXR (247 to 467 residues) expressed in HEK293 cells at 100 uM incubated for 8 hrs by luciferase assay; format: cell-based
T3 sequence (whole entry): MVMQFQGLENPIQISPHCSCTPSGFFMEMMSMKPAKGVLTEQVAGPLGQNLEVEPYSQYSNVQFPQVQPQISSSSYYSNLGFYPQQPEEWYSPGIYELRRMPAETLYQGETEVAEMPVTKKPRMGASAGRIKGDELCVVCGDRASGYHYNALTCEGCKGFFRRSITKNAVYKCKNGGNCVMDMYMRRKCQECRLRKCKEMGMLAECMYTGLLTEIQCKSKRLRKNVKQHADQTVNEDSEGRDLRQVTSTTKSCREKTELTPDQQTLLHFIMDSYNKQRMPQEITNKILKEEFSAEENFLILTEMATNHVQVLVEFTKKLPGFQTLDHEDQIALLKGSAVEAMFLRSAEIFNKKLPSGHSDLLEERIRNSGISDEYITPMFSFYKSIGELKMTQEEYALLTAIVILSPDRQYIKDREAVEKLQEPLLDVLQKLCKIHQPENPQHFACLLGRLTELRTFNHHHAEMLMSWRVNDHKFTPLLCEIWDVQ

[7] = Apparent permeability in human Caco2 cells across apical side to basolateral side assessed as drug recovery at 10 uM incubated for 95 mins by liquid chromatography-tandem mass spectrometry; format: ADME, cell-based; conditions: Caco-2, read-out: Drug recovery
[8] = biological target: T4, G-protein coupled bile acid receptor 1 (Homo sapiens) (UniProt Q8TDU6); test: Agonist activity at N-terminal HA-tagged human TGR5 expressed in HEK293 cells assessed as […] in intracellular cAMP levels incubated for 30 mins by Lance Ultra cAMP assay relative to control; format: functional, cell-based; conditions: filed as agonist
T4 sequence (whole entry): T1 sequence (Q8TDU6 whole entry)

[9] = biological target: T5, G-protein coupled bile acid receptor 1 (Mus musculus, UniProt Q80SS6); test: Agonist activity at N-terminal HA-tagged mouse TGR5 expressed in HEK293 cells assessed as […] in intracellular cAMP levels incubated for 30 mins by Lance Ultra cAMP assay; format: functional, cell-based
T5 sequence (Q80SS6 whole entry): T2 sequence (whole entry)

[10] = Apparent permeability in human Caco2 cells across basolateral side to apical side assessed as drug recovery at 10 uM incubated for 95 mins by liquid chromatography-tandem mass spectrometry; format: ADME, cell-based; conditions: Caco-2, read-out: Drug recovery
Mus musculus [11] = test: Anti-glycemic activity in fasted C57/BL6 mouse harboring TGR5 H88Y mutant assessed as reduction in plasma glucose at 100 mg/kg administered 30 mins prior to glucose challenge by OGTT; format: functional, organism-based
Mus musculus [12] = test: Anti-glycemic activity in fasted C57BL/6n mouse harboring wild type TGR5 assessed as reduction in plasma glucose at 100 mg/kg administered 30 mins prior to glucose challenge by OGTT; format: functional, organism-based
Pancreatic islet [13] = test: Stimulation of glucose-induced insulin secretion in pancreatic islets of C57BL/6n mouse harboring TGR5 H88Y mutant at 1 uM incubated for 2 hrs by HTRF method; format: functional, tissue-based
Mus musculus [14] = test: Anti-glycemic activity in fasted C57BL/6n mouse harboring TGR5 H88Y mutant assessed as increase in serum insulin at 100 mg/kg administered 30 mins prior to glucose challenge and measured after 15 mins by ELISA method; format: functional, organism-based
Mus musculus [15] = test: Anti-glycemic activity in fasted C57BL/6n mouse assessed as increase in serum insulin at 100 mg/kg administered 30 mins prior to glucose challenge and measured after 15 mins by ELISA method; format: functional, organism-based
Pancreatic islet [16] = test: Stimulation of glucose-induced insulin secretion in pancreatic islets of C57BL/6n mouse harboring wild type TGR5 at 1 uM incubated for 2 hrs by HTRF method; format: functional, tissue-based
Mus musculus [17] = test: Anti-glycemic activity in fasted C57BL/6n mouse harboring TGR5 H88Y mutant assessed as increase in serum GLP1 at 100 mg/kg administered 30 mins prior to glucose challenge and measured after 15 mins by ELISA method; format: functional, organism-based
Mus musculus [18] = test: Anti-glycemic activity in fasted C57BL/6n mouse assessed as increase in serum GLP1 at 100 mg/kg administered 30 mins prior to glucose challenge and measured after 15 mins by ELISA method; format: functional, organism-based
[19] = Efflux ratio in human Caco-2 cells at 10 uM by LC/MS/MS analysis; format: ADME, cell-based
[20] = Apparent permeability in human Caco-2 cells across apical side to basolateral side at 10 uM incubated for 95 mins by liquid chromatography-tandem mass spectrometry; format: ADME, cell-based
[21] = Apparent permeability in human Caco-2 cells across basolateral side to apical side at 10 uM incubated for 95 mins by liquid chromatography-tandem mass spectrometry; format: ADME, cell-based

Row | Structure (SMILES) | pEC50 [2] | Activity [6] | Emax [8] [%] | further results
1 | C[C@H](O)[C@@H]1CC[C@]2(C(=O)O)CC[C@]3(C)[C@H](CC[C@@H]4[C@@]5(C)CC[C@@H](OC(=O)NC6CC6)C(C)(C)[C@@H]5CC[C@]43C)[C@@H]12 [listing 1 of 2 here] | 8.29 |  |  | solubility [1]: 12.2 µM (≈ 6.63 µg/mL)
2 | C[C@H](CCC(=O)O)[C@H]1CC[C@H]2[C@@H]3[C@H](O)C[C@@H]4C[C@H](O)CC[C@]4(C)[C@H]3C[C@H](O)[C@]12C |  |  |  | Activity (HEK293 [3]): Active; Activity [4]: Active
3 | C[C@H](CCC(=O)O)[C@H]1CC[C@H]2[C@@H]3CC[C@@H]4C[C@H](O)CC[C@]4(C)[C@H]3CC[C@]12C |  |  |  | Activity (HEK293 [3]): Active; Activity [4]: Active
4 | COc1ccc2cc(CNCCc3ccc(Br)cc3)c(-c3ccsc3)nc2c1 |  |  |  | Ratio (HEK293 [5]): 5.6; Activity (HEK293 [3]): Active
5 | CCCC(=O)O[C@@H]1CC[C@]2(C)[C@H]3CC[C@@H]4[C@H]5[C@H](C(C)C)CC[C@]5(C(=O)O)CC[C@@]4(C)[C@]3(C)CC[C@H]2C1(C)C | 7.08 | inactive | 94 | solubility [1]: 0.13 µM (≈ 0.0687 µg/mL); recovery at 1.583 h, 10 µM [7]: 0%; pEC50 [9]: 5.58; recovery at 1.583 h, 10 µM [10]: 0%; Emax [4]: 22%; Activity (Mus musculus [11]): inactive
6 | CC(=O)[C@@H]1CC[C@]2(C(=O)O)CC[C@]3(C)[C@H](CC[C@@H]4[C@@]5(C)CC[C@@H](OC(=O)NC6CC6)C(C)(C)[C@@H]5CC[C@]43C)[C@@H]12 | 7.88 | inactive | 100 | 
7 | CC(C)[C@@H]1CC[C@]2(C(=O)NCC(=O)O)CC[C@]3(C)[C@H](CC[C@@H]4[C@@]5(C)CC[C@@H](OC(=O)NC6CC6)C(C)(C)[C@@H]5CC[C@]43C)[C@@H]12 | 6.42 | inactive | 96 | 
8 | C[C@H](O)[C@@H]1CC[C@]2(C(=O)O)CC[C@]3(C)[C@H](CC[C@@H]4[C@@]5(C)CC[C@@H](OC(=O)NC6CC6)C(C)(C)[C@@H]5CC[C@]43C)[C@@H]12 [listing 2 of 2 here] |  | inactive | 99 | Activity (Mus musculus [12]): inactive; Activity (Pancreatic islet [13]): Active; Activity (Mus musculus [14]): Active; Activity (Mus musculus [15]): inactive; Activity (Pancreatic islet [16]): Active; Activity (Mus musculus [17]): Active; Activity (Mus musculus [11]): Active; Activity (Mus musculus [18]): inactive
9 | CC(C)[C@@H]1CC[C@]2(C(=O)O)CC[C@]3(C)[C@H](CC[C@@H]4[C@@]5(C)CC[C@@H](OC(=O)N6CCOCC6)C(C)(C)[C@@H]5CC[C@]43C)[C@@H]12 | 6.34 | inactive | 95 | 
10 | CCNS(=O)(=O)O[C@@H]1CC[C@]2(C)[C@H]3CC[C@@H]4[C@H]5[C@H](C(C)C)CC[C@]5(C(=O)O)CC[C@@]4(C)[C@]3(C)CC[C@H]2C1(C)C | 7.16 | inactive | 98 | 
11 | C[C@H](O)[C@@H]1CC[C@]2(C(=O)[O-])CC[C@]3(C)[C@H](CC[C@@H]4[C@@]5(C)CC[C@@H](OC(=O)NC6CC6)C(C)(C)[C@@H]5CC[C@]43C)[C@@H]12.[Na+] |  |  |  | efflux ratio at 10 µM [19]: 0.329; solubility [1]: 76300 µM; Papp A→B at 1.583 h, 10 µM [20]: 7.56 ×10⁻⁶ cm/s; recovery at 1.583 h, 10 µM [7]: 84.6%; Papp B→A at 1.583 h, 10 µM [21]: 2.49 ×10⁻⁶ cm/s; recovery at 1.583 h, 10 µM [10]: 85.1%
12 | CC(C)[C@@H]1CC[C@]2(C(=O)O)CC[C@]3(C)[C@H](CC[C@@H]4[C@@]5(C)CC[C@@H](OC(N)=O)C(C)(C)[C@@H]5CC[C@]43C)[C@@H]12 | 7.51 | inactive | 100 | 
13 | C[C@@H](O)[C@@H]1CC[C@]2(C(=O)O)CC[C@]3(C)[C@H](CC[C@@H]4[C@@]5(C)CC[C@@H](OC(=O)NC6CC6)C(C)(C)[C@@H]5CC[C@]43C)[C@@H]12 | 7.42 | inactive | 99 | 
14 | O=C(c1cccnc1Oc1cc(Cl)ccc1Cl)N1CCCc2ccccc21 |  |  |  | Ratio (HEK293 [5]): 4.9; Activity (HEK293 [3]): Active
15 | CCOC(=O)O[C@@H]1CC[C@]2(C)[C@H]3CC[C@@H]4[C@H]5[C@H](C(C)C)CC[C@]5(C(=O)O)CC[C@@]4(C)[C@]3(C)CC[C@H]2C1(C)C | 7.10 | inactive | 92 | 
16 | CC(C)[C@@H]1CC[C@]2(NC(=O)OCC(=O)O)CC[C@]3(C)[C@H](CC[C@@H]4[C@@]5(C)CC[C@@H](OC(=O)NC6CC6)C(C)(C)[C@@H]5CC[C@]43C)[C@@H]12 | 6.57 | inactive | 98 | 
17 | CCNC(=O)O[C@@H]1CC[C@]2(C)[C@H]3CC[C@@H]4[C@H]5[C@H](C(C)C)CC[C@]5(C(=O)O)CC[C@@]4(C)[C@]3(C)CC[C@H]2C1(C)C | 7.88 | inactive | 100 | 
18 | CC(C)NC(=O)O[C@@H]1CC[C@]2(C)[C@H]3CC[C@@H]4[C@H]5[C@H](C(C)C)CC[C@]5(C(=O)O)CC[C@@]4(C)[C@]3(C)CC[C@H]2C1(C)C | 6.91 | inactive | 97 | 
19 | CNS(=O)(=O)O[C@@H]1CC[C@]2(C)[C@H]3CC[C@@H]4[C@H]5[C@H](C(C)C)CC[C@]5(C(=O)O)CC[C@@]4(C)[C@]3(C)CC[C@H]2C1(C)C | 7.34 | inactive | 99 | 
20 | CNC(=O)O[C@@H]1CC[C@]2(C)[C@H]3CC[C@@H]4[C@H]5[C@H](C(C)C)CC[C@]5(C(=O)O)CC[C@@]4(C)[C@]3(C)CC[C@H]2C1(C)C | 7.75 | inactive | 98 | 
21 | CCCS(=O)(=O)O[C@@H]1CC[C@]2(C)[C@H]3CC[C@@H]4[C@H]5[C@H](C(C)C)CC[C@]5(C(=O)O)CC[C@@]4(C)[C@]3(C)CC[C@H]2C1(C)C | 7.11 | inactive | 98 | 
